Laboratory results published in patent publication US20110092544A1, “FUNGICIDAL PYRIDINES” (E.I. DU PONT DE nemours and company, priority 2008, published 2011).

What was measured:
Assay type in all cases: in vivo
[1] = test system: Alternaria solani; test: Test E: tomato early blight, preventive spray on tomato seedlings, visual disease rating
Method in brief: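 Seedlings sprayed to run-off with compound in acetone/water plus 250 ppm Trem 014 (200 ppm ≈ 500 g/ha), inoculated with spores next day. Held 48 h saturated at 27 °C, then 5 days at 20 °C; visual rating 0–100% disease control relative to controls.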

[2] = test system: Botrytis cinerea; test: Test F: tomato botrytis, preventive spray on tomato seedlings, visual disease rating
Method in brief: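 Tomato seedlings sprayed to run-off with compound suspended in acetone/water (50/50) plus 250 ppm Trem 014, at 200 ppm (≈500 g/ha) or 40 ppm where marked. Inoculated next day with B. cinerea spores, 48 h saturated atmosphere at 20 °C, then 3 days at 24 °C. Visual rating, 0–100% disease control relative to controls.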

[3] = test system: Septoria nodorum; test: Test D: wheat glume blotch, preventive spray on wheat seedlings, visual disease rating
Method in brief: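 Compounds in 3% acetone, then 50/50 acetone–water with 250 ppm Trem 014, sprayed to run-off at 200 ppm (500 g/ha; some at 40 ppm) one day before spore inoculation. Held 48 h saturated at 20 °C, then 7 days at 20 °C; visual rating as % disease control vs untreated (0–100).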

[4] = test system: Erysiphe graminis f. sp. tritici; test: Test A: wheat powdery mildew, preventive spray on wheat seedlings, visual disease rating
Method in brief: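 Acetone/water (50/50) suspension with 250 ppm surfactant sprayed to run-off on wheat seedlings (200 ppm ≈ 500 g/ha); inoculated next day with E. graminis spore dust. Incubated 8 days at 20° C, then visually rated 0–100% disease control versus untreated controls; tests at 200 ppm or 40 ppm.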

[5] = test system: Puccinia recondite f. sp. tritici; test: Test B: wheat leaf rust, preventive spray on wheat seedlings, visual disease rating
Method in brief: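 Wheat seedlings were sprayed to run-off with compound suspension, 200 ppm (≈500 g/ha) or 40 ppm where marked, containing surfactant in acetone/water. Inoculation with Puccinia recondita spores followed one day later, then 24 h in saturated humidity at 20° C and 7 days at 20° C. Disease control was rated visually, 0–100% versus controls.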

[6] = test system: Septoria tritici; test: Test C: wheat leaf blotch, preventive spray on wheat seedlings, visual disease rating
Method in brief: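 Wheat seedlings sprayed to run-off with compound in acetone/water plus 250 ppm surfactant at 200 ppm (≈500 g/ha), or 40 ppm where marked; inoculated with Septoria tritici next day. Held saturated at 20 °C for 48 h, then 19 days at 20 °C; disease control rated visually 0–100 versus controls.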

[7] = 200 ppm, 100 = 100% disease control, 0 = no control
[8] = 40 ppm (compound number followed by *)

Structure (SMILES) | Test E rating (% disease control) [1, 7] [%] | Test F rating (% disease control) [2, 7] [%] | Test D rating (% disease control) [3, 7] [%] | Test A rating (% disease control) [4, 7] [%] | Test B rating (% disease control) [5, 7] [%] | Test C rating (% disease control) [6, 7] [%] | other results
COc1ccc(-c2c(C)ncc(C(C)CO)c2-c2cc(OC)cc(OC)c2)cc1 (stereo not drawn) [Compound 82] | 98 | 98 | 69 | 97 | 98 | 95 | –
COc1cc(OC)cc(-c2c(C(C)(C)O)cnc(C)c2-c2c(F)ccc(OC)c2F)c1 [Compound 106] | 99 | 98 | 0 | 96 | 100 | 98 | –
C=C(C)c1cnc(C)c(-c2c(F)cc(OC)cc2F)c1-c1cc(OC)cc(OC)c1 [Compound 74] | 100 | 98 | 100 | 100 | 100 | 98 | –
CCC(O)c1cnc(C)c(-c2c(F)cc(F)cc2F)c1-c1cc(OC)cc(OC)c1 (stereo not drawn) [Compound 99] | 100 | 98 | 100 | 100 | 100 | 94 | –
COc1cc(OC)c(Cl)c(-c2c(-c3ccccc3F)cnc(C)c2-c2c(F)cc(F)cc2F)c1 [Compound 135, 4-(2-chloro-3,5-dimethoxyphenyl)-5-(2-fluorophenyl)-2-methyl-3-(2,4,6-trifluorophenyl)pyridine] | – | – | – | – | – | – | pest or weed control at 40 ppm ([1]; Alternaria solani, 168 h, 40 ppm (compound number followed by *)): 88%; pest or weed control at 40 ppm ([2]; Botrytis cinerea, 120 h, 40 ppm (compound number followed by *)): 100%; pest or weed control at 40 ppm ([3]; Parastagonospora nodorum, 216 h, 40 ppm (compound number followed by *)): 96%; pest or weed control at 40 ppm ([4]; Blumeria graminis, 192 h, 40 ppm (compound number followed by *)): 98%; pest or weed control at 40 ppm ([5]; 192 h, 40 ppm (compound number followed by *)): 100%; pest or weed control at 40 ppm ([6]; Zymoseptoria tritici, 504 h, 40 ppm (compound number followed by *)): 99%
COc1cc(OC)c(Cl)c(-c2c(CCl)cnc(C)c2-c2c(F)cc(F)cc2F)c1 [Compound 134] | – | – | – | – | – | – | Test E rating (% disease control) [1, 8]: 96%; Test F rating (% disease control) [2, 8]: 100%; Test D rating (% disease control) [3, 8]: 92%; Test A rating (% disease control) [4, 8]: 99%; Test B rating (% disease control) [5, 8]: 100%; Test C rating (% disease control) [6, 8]: 99%
COc1cc(OC)cc(-c2c(C(C)=O)cnc(C)c2-c2c(F)ccc(F)c2F)c1 [Compound 68] | 99 | 99 | 0 | 100 | 99 | 88 | –
COc1cc(OC)cc(-c2c(C(N)=O)cnc(C)c2-c2c(F)cc(F)cc2F)c1 [Compound 120] | – | – | – | – | – | – | Test E rating (% disease control) [1, 8]: 47%; Test F rating (% disease control) [2, 8]: 79%; Test D rating (% disease control) [3, 8]: 0%; Test A rating (% disease control) [4, 8]: 0%; Test B rating (% disease control) [5, 8]: 91%; Test C rating (% disease control) [6, 8]: 87%
COc1cc(OC)cc(-c2c(-c3c(F)cc(F)cc3F)cnc(Cl)c2-c2c(F)cc(F)cc2F)c1 [Compound 80] | 64 | 0 | 0 | 95 | 97 | 57 | –
COc1cc(OC)cc(-c2c(-c3ccc(F)cc3)cnc(C)c2-c2ccccc2F)c1 [Compound 94] | 0 | 98 | 0 | 21 | 54 | 91 | –
COc1cc(OC)cc(-c2c(CN3CCCCC3)cnc(C)c2-c2c(F)cc(F)cc2F)c1 [Compound 111] | 0 | 99 | 0 | 93 | 97 | 91 | –
